Assay results: patent publication US11285167B2, “Synergistic nutritional neuroprotective compositions for ameliorating neural dysfunction” (CELAGENEX RESEARCH (INDIA) PVT. LTD., priority 2019, dated 2022)

How the values were obtained:
[1] = system: TNF alpha; assay: TNF alpha level in global ischemia reperfusion induced brain injury (cerebral infarction) model; assay type: in vivo, Wistar rats; settings: global ischemia (30 min)/72 h reperfusion, oral daily for 10 days, mean ± SEM, n = 6
[2] = system: Major depression disorder in Wistar rats; assay: Open field test (ambulatory behavior) in Reserpine-induced major depression disorder; assay type: in vivo
[3] = system: Valproic acid-induced autism disorder in albino Wistar rats; assay: Morris water maze test in Valproic acid-induced autism disorder; assay type: in vivo; design: Escape latency / Retention time: unit not given here; settings: for Escape latency / Retention time: PND 40, VPA 400 mg/kg, oral daily PND 14 to PND 40, mean ± SEM; for Learning and memory activities, Morris water maze (in words): PND 40, compared to Disease control or to Group-3 and Group-4
Protocol: The present study was to evaluate the effect of test substances on Valproic acid induced Autism spectrum disorder in wistar rats. The animals (50 animals) were divided into five groups each group consisting of 10 animals (5 animals per sex). Animals in Group-1 were treated with vehicle (0.5% CMC), Group-2 was treated with Valproic acid (VPA) 400 mg/kg via subcutaneous route, Group-3, Group-4 and Group-5 were treated with test substance Agmatine Sulphate (25.83 mg/kg), Nicotinamide Riboside chloride (6.46 mg/kg) and Agmatine Sulphate+Nicotinamide Riboside chloride (25.83 mg/kg+6.46 mg/kg) respectively, according to the body weight of animals. At the end of the experimental period, blood was collected from each group for biochemical analyses. On postnatal day 40 (PND 40), all the animals were exposed to the Morris water maze test and Open field test for specific time periods to determine the autism-like behaviors of the test substances. […] The experiment was performed in 14-day old male and female off springs. The weight of the rat pups on the first day of the experiment was 20-40 grams. Sodium Valproate at dose of 400 mg/kg was freshly prepared and administered via subcutaneous route to the rat pups on postnatal day 14 (PND 14). All the animals were divided into five groups and each group contained the same amount of male and female offspring (5 males and 5 females, per group). Animals in Group-1 served as Normal control and were treated with 0.5% CMC, Group-2 served as Disease control and were treated with VPA (400 mg/kg) via intraperitoneally (i.p.), whereas Group-3 was treated with Test-1 Agmatine Sulphate (25.83 mg/kg), Group-4 was treated with Test-2 Nicotinamide Riboside chloride (6.46 mg/kg) and Group-5 was treated with Test-1+Test-2 Agmatine Sulphate+Nicotinamide Riboside chloride (25.83 mg/kg+6.46 mg/kg). The assigned test substances were administered once daily from PND 14 to PND 40. In addition, behaviors of experimental animals were determined via Morris water maze and open field test. […] The dose volume administered to each rat was 10 ml/kg/day. Similarly, 0.5% CMC for Normal control and Disease control groups was administered orally at the same dose volume for a minimum of 26 consecutive days. The dose volume was calculated for individual animals on the first day of the treatment and was re-calculated according to the recent body weights recorded during the study. Daily individual dose volumes were recorded in the study records. The animals were exposed to a pool consisting of 4 quadrants (Northeast, Southeast, Southwest, and Northwest) which was filled with tap water (25° C., 40 cm deep) and covered with nontoxic milk. The removable platform was immersed below the water surface of one quadrant. Each animal had to memorize the location of the immersed platform by using specific visual cues placed around the outside of the tank. The time spent by each rat in finding and climbing on the immersed platform was recorded as the escape latency. Twenty-four hours later, the animal was re-exposed to the same condition, except that the immersed platform had been removed. The mean time that each rat spent in the target quadrant in order to search for the missing platform was noted as the retention time and was used as the index of retrieval memory. Both the escape latency and the retention time in a 5-minute exposure time were used as indices of learning and memory. A blind observer always stood at the same position, and care was taken not to disturb the relative location of water maze with respect to other objects in the laboratory. The determination of the spatial memory capacity via this test was done on PND 40.

[4] = system: Major depression disorder in Wistar rats; assay: Overall behavioral evaluation in major depression disorder study (forced swim and open field tests); assay type: in vivo; settings: oral 7 consecutive days
[5] = system: Valproic acid-induced autism disorder in albino Wistar rats; assay: Overall autism-like behavior in VPA model of autism disorder; assay type: in vivo
Protocol: The present study was to evaluate the effect of test substances on Valproic acid induced Autism spectrum disorder in wistar rats. The animals (50 animals) were divided into five groups each group consisting of 10 animals (5 animals per sex). Animals in Group-1 were treated with vehicle (0.5% CMC), Group-2 was treated with Valproic acid (VPA) 400 mg/kg via subcutaneous route, Group-3, Group-4 and Group-5 were treated with test substance Agmatine Sulphate (25.83 mg/kg), Nicotinamide Riboside chloride (6.46 mg/kg) and Agmatine Sulphate+Nicotinamide Riboside chloride (25.83 mg/kg+6.46 mg/kg) respectively, according to the body weight of animals. At the end of the experimental period, blood was collected from each group for biochemical analyses. On postnatal day 40 (PND 40), all the animals were exposed to the Morris water maze test and Open field test for specific time periods to determine the autism-like behaviors of the test substances. […] The experiment was performed in 14-day old male and female off springs. The weight of the rat pups on the first day of the experiment was 20-40 grams. Sodium Valproate at dose of 400 mg/kg was freshly prepared and administered via subcutaneous route to the rat pups on postnatal day 14 (PND 14). […] In addition, behaviors of experimental animals were determined via Morris water maze and open field test. […]

| Structure (SMILES) | TNF alpha Level [1] [pg/mL] | No. of open arm entries (Open field test) ([2]; po) | Escape latency ([3]; Female) | Retention time ([3]; Female) | Escape latency ([3]; Male) | Retention time ([3]; Male) | Learning and memory activities, Morris water maze (in words) [3] | Effect on major depression disorder (in words) [4] | Autism-like behavior (in words) [5] | No. of open arm entries (Open field test) ([2]; 6 minute session, Reserpine induced, oral daily 7 days, mean ± SEM, n = 6) |
| --- | --- | --- | --- | --- | --- | --- | --- | --- | --- | --- |
| N=C(N)NCCCCN.O=S(=O)(O)O [Agmatine sulphate] | 142.00 ± 1.53 | 36.00 ± 0.86 | 14.20 ± 0.37 | 24.80 ± 0.58 | 14.00 ± 0.71 | 24.20 ± 0.73 | significantly increased learning and memory activities | positive effects on major depression disorder | improved autism-like behavior | – |
| NC(=O)c1ccc[n+]([C@@H]2O[C@H](CO)[C@@H](O)[C@H]2O)c1.[Cl-] [Nicotinamide Riboside chloride, nicotinamide riboside chloride] | 160.33 ± 4.79 | – | 15.20 ± 0.37 | 26.40 ± 0.68 | 15.40 ± 0.51 | 26.20 ± 0.49 | significantly increased learning and memory activities | positive effects on major depression disorder | improved autism-like behavior | 31.33 ± 0.71 |
